The target of series [1] is T1, human interleukin-23 receptor (recombinant human IL-23R-Fc chimera) (Homo sapiens, UniProt Q5VWK5).
T1 construct: Fc (IgG Fc fusion)
The series is described as follows: Human ELISA IL23/IL23R (assay for specific human IL23R antagonists). The format is binding. To be noted: Table 10; read-out: Human ELISA IL23/IL23R IC50. The essentials:
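Competition format: peptide dilutions compete for IL23R-Fc chimera (0.1 μg/ml final, 60 min, room temperature) binding to immobilized human IL23 coated at […] overnight at 4 °C. Read-out is fluorogenic HRP signal from goat anti-hu-IgG1 detecting captured receptor.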

Series [2] can be described thus: Solubility testing of peptides at different pH. Type of series: physicochemical. To be noted: target concentration 1 mg/ml, 2 hours agitation. The essentials:
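Four buffers were used: 50 mM HCl pH 1.2 and 50 mM phosphate at pH 6.5, 7.4 and 9.0, each receiving dried-down compound at a 1 mg/mL target. After 2 h gentle shaking and 0.45 μm filtration, UV peak areas were compared with a DMSO standard curve of known concentration, allowing for extinction coefficients.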

The nature of series [3]: Chemical stability assessment of peptides (relative purity loss). Type of series: physicochemical. To be noted: 24 hours at 37° C. The gist of the method: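 Peptide solutions at 1 mg/ml (purity-corrected) in 1:1 acetonitrile with 50 mM HCl pH 1.2, or 50 mM phosphate pH 6.5 or pH 7.4, held 24 hours at 2° C. and 37° C. Supernatants analysed by UHPLC-UV; relative purity loss taken as percent drop in peak-area purity from 0 to 24 hours at 37° C.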

The subject of the next series is T2, Pepsin.
T2 construct: purchased Merck Millipore
The series is described as follows: Protease stability in simulated gastric fluid (Pepsin-SGF, FaSSGF). The format is in vitro ADME. To be noted: simulated gastric fluid with pepsin (Pepsin-SGF), 60 min, 1 μM peptide, 37° C., read-out: FaSSGF 60 (min), remaining percent of peptide. The gist of the method: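 LCMS/MS peak areas, normalised to the time-0 sample as 100%, give percent remaining. Conditions: 37° C incubation of 1 μM final peptide in simulated gastric fluid with pepsin; ethanol/0.1% HCOOH quench at 0, 60, 120, 240 min.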

For another series, the system named is Pancreatin. The series is described as follows: Protease stability in simulated intestinal fluid (Pancreatin-SIF, FaSSIF). The format is in vitro ADME. To be noted: 1 μM peptide, 37° C. The gist of the method: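 LC-MS/MS peak areas at 0, 60, 120 and 240 min, normalised to time 0 as 100%, give percent remaining. Reactions used 1 μM final peptide at 37° C in pancreatin-SIF (1 mg pancreatin in 10 mL SIF concentrate) and were stopped with ethanol containing 0.1% HCOOH.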

pIC50: −log10 of the molar value. In brackets after ≈: the same amount, converted by molar mass. Read-outs that look alike come from different tables or passages of the source. Positions of bridges follow the written chain, without caps; N, C: chain ends. Non-standard residues stand in square brackets, D forms with d. Residues, ends and D or L forms follow the SMILES beside them. *: point of attachment. Trp(7-Me) = Cc1cccc2c(C[C@H](N)C(=O)O)c[nH]c12; 2Nal = N[C@@H](Cc1ccc2ccccc2c1)C(=O)O; 3Pal = N[C@@H](Cc1cccnc1)C(=O)O; Thp = NC1(C(=O)O)CCOCC1; Me2NCH2CH2 = CN(C)CC*; Ava = NCCCCC(=O)O

For orientation: solubility means the dissolved amount per volume that the medium holds. In general, fraction remaining refers to what is left of the initial amount, in per cent.

For the compound `CC(=O)NCCCC[C@@H]1NC(=O)[C@H](Cc2c[nH]c3c(C)cccc23)NC(=O)[C@H]([C@@H](C)O)NC(=O)[C@H](CC(N)=O)NC(=O)[C@@H]2CSSC[C@H](NC1=O)C(=O)N[C@@H](Cc1ccc(OCCN(C)C)cc1)C(=O)N[C@@H](Cc1ccc3ccccc3c1)C(=O)NC1(CCOCC1)C(=O)N[C@H](C(=O)N[C@@H](CC(N)=O)C(=O)N[C@@H](Cc1cccnc1)C(N)=O)CCC(=O)NCCCCC(=O)N2` [compound 51] ([Ava]CNT[Trp(7-Me)]K(Ac)CY(Me2NCH2CH2)[2Nal][Thp]EN[3Pal]-NH2; disulfide 2-7; lactam N-11), the pIC50 in series [1] is 9.72. Further, the solubility at 2 h was at least 1020 µg/mL in series [2] (50 mM HCl buffer, 50 mM HCl pH 1.2, read-out: Solubility Buffer pH 1.2); at least 930 µg/mL in series [2] (50 mM phosphate buffer pH 6.5, read-out: Solubility Buffer pH 6.5); 430 µg/mL (≈ 234 µM) in series [2] (50 mM phosphate buffer pH 7.4, read-out: Solubility Buffer pH 7.4); 100 µg/mL (≈ 54.4 µM) in series [2] (50 mM phosphate buffer pH 9.0, read-out: Solubility Buffer pH 9.0). Moreover, the “Chemical stability (relative purity loss) Buffer pH 1.2” value in series [3] (50 mM HCl pH 1.2 + acetonitrile (1:1)) is reported as 17.1%. The “Chemical stability (relative purity loss) Buffer pH 6.5” value in series [3] (50 mM phosphate buffer pH 6.5 + acetonitrile (1:1)) amounted to 0.2%. In addition, the “Chemical stability (relative purity loss) Buffer pH 7.4” value in series [3] (50 mM phosphate buffer pH 7.4 + acetonitrile (1:1)) is listed as 0.7%. The fraction remaining at 1 h, 1 µM was 94% in the series with Pepsin and 92% in the series on Pancreatin (60 min, read-out: FaSSIF 60 (min), remaining percent of peptide). The amount remaining at 2 h, 1 µM in the series on Pancreatin (120 min, read-out: FaSSIF 120 (min), remaining percent of peptide) was 86%. In the series on Pancreatin (240 min, read-out: FaSSIF 240 (min), remaining percent of peptide), the share remaining at 4 h, 1 µM was 78%.

The record behind these values is patent publication US20260258084A1, “New Peptides as Selective IL-23 Receptor Antagonists” (Sanofi, priority 2022, published 2026).
